These results are taken from paper PMC6133161, “Thiazoles with cyclopropyl fragment as antifungal, anticonvulsant, and anti-Toxoplasma gondii agents: synthesis, toxicity evaluation, and molecular docking study” (Medicinal Chemistry Research, 2018).

≈ marks a conversion by molar mass, not a printed value.

Holding throughout (experiment): Broth microdilution MIC/MFC, clinical isolate
Common to all, as to type: cell-based
(In general: Dilution methods test growth across graded concentrations, often in twofold steps.)

One assay deals with C. albicans. To be noted: Candida albicans, C. albicans clinical strain; for MFC: read-out: MFC; for MIC: read-out: MIC. From the text:
(§1) In the study of antifungal activity of the compounds 3a–3j, 15 clinical strains of different species of yeasts from Candida species, namely C. albicans, C. dubliniensis C. famata, C. inconspicua, C. krusei, C. tropicalis, C. glabrata, C. lambica, C. kefyr, C. lusitaniae, C. parapsilosis, C. guilliermondii, C. lusitaniae, C. pulcherrima and C. sake were also used. These fungi were isolated by the author (from Department of Pharmaceutical Microbiology of Medical University in Lublin, Poland) from different clinical materials, e.g., from upper respiratory tract of hospitalized patients including cancer patients (i.e., with non-small cell lung cancer or hematological malignancies). Some patients were after pre-operative or post-operative chemotherapy (treated with etoposide or cis-platin given in doses according to the standard procedures), patients with chronic hepatitis C (undergoing peginterferon and ribavirin therapy or without antiviral therapy), patients with diabetes, elderly people, aged of 65 years old or older, staying in close population, such as a care centre and people staying outside the home care. The Ethical Committee of the Medical University of Lublin approved the study protocol (No. KE-0254/75/2011). The isolates were identified by standard diagnostic methods—biochemical microtest, e.g., API 20C AUX, ID 32C, API Candida (bioMérieux) on the basis of assimilation of various substrates. All the used microbial cultures were first subcultured on nutrient agar or Sabouraud agar for bacteria and fungi, respectively. The RPMI 1640 with MOPS (for fungi) were inoculated with the suspensions of fungal species. Microbial suspensions were prepared in sterile saline (0.85% NaCl) with an optical density of 0.5 McFarland standard scale (Wiegand et al. [2008]). Samples containing examined compounds were dissolved in dimethyl sulfoxide (DMSO). Furthermore, fungal suspensions were put onto Petri dishes with solid media containing 2 mg/ml of the tested compounds followed incubation under appropriate conditions. The inhibition of microbial growth was judged by comparison with a control culture prepared without any sample tested. Nystatin (Sigma) was used as a reference antifungal compound. Subsequently MIC minimal inhibitory concentration (MIC) of the compounds was examined by the microdilution broth method, using their two-fold dilutions in RPMI 1640 broth with MOPS prepared in 96-well polystyrene plates. Final concentrations of the compounds ranged from 1000 to 0.0038 µg/ml. Microbial suspensions were prepared in sterile saline with an optical density of 0.5 McFarland standard. Next fungal suspension was added per each well containing broth and various concentrations of the examined compounds. After incubation, the MIC was assessed spectrophotometric as the lowest concentration of the samples showing complete fungal growth inhibition. Appropriate DMSO, growth and sterile controls were carried out. The medium with no tested substances was used as a control (Wiegand et al. [2008]). The minimal fungicidal concentration (MFC) are defined as the lowest concentration of the compounds that is required to kill a particular fungal species. MFC was determined by removing the culture using for MIC determinations from each well and spotting onto appropriate agar medium. The plates were incubated. The lowest compounds concentration with no visible growth observed was assessed as a fungicidal concentration. All the experiments were repeated three times and representative data are presented.
(§2) The MFC/MIC ratios were calculated in order to determine fungicidal (MFC/MIC ≤ 4) or fungistatic (MFC/MIC > 4) effect of the tested compounds (O’Donnell et al. [2010]).

Another assay relates to C. famata. The conditions noted are these: Debaryomyces hansenii, C. famata clinical strain; for MFC: read-out: MFC; for MIC: read-out: MIC.
Description: as §1, §2

A further assay relates to C. parapsilosis. The conditions noted are these: Lodderomyces parapsilosis, C. parapsilosis clinical strain; for MFC: read-out: MFC; for MIC: read-out: MIC.
Description: as §1, §2

The subject of another assay is C. krusei. To be noted: Pichia kudriavzevii, C. krusei clinical strain; for MFC: read-out: MFC; for MIC: read-out: MIC.
Description: as §1, §2

The subject of another assay is C. tropicalis. To be noted: Candida tropicalis, C. tropicalis clinical strain; for MFC: read-out: MFC; for MIC: read-out: MIC.
Description: as §1, §2

Another assay concerns C. sake. The conditions noted are these: Fermentozyma sake, C. sake clinical strain; for MFC: read-out: MFC; for MIC: read-out: MIC.
Description: as §1, §2

For another assay, the system named is C. guilliermondii. To be noted: Meyerozyma guilliermondii, C. guilliermondii clinical strain; for MFC: read-out: MFC; for MIC: read-out: MIC.
Description: as §1, §2

The subject of another assay is C. inconspicua. To be noted: Pichia inconspicua, C. inconspicua clinical strain; for MFC: read-out: MFC; for MIC: read-out: MIC.
Description: as §1, §2

A further assay deals with C. dubliniensis. The conditions noted are these: Candida dubliniensis, C. dubliniensis clinical strain; for MFC: read-out: MFC; for MIC: read-out: MIC.
Description: as §1, §2

Another assay has as its system C. lusitaniae. To be noted: Clavispora lusitaniae, C. lusitaniae clinical strain; for MFC: read-out: MFC; for MIC: read-out: MIC.
Description: as §1, §2

The test system of the next assay is C. glabrata. The conditions noted are these: Nakaseomyces glabratus, C. glabrata clinical strain; for MFC: read-out: MFC; for MIC: read-out: MIC.
Description: as §1, §2

The next assay relates to C. kefyr. To be noted: Kluyveromyces marxianus, C. kefyr clinical strain; for MFC: read-out: MFC; for MIC: read-out: MIC.
Description: as §1, §2

The test system of a further assay is C. pulcherrima. To be noted: C. pulcherrima clinical strain.
Description: as §1, §2

With `Fc1ccc(-c2csc(N/N=C/C3CC3)n2)cc1` [Compound 3a, (E)-2-(2-(Cyclopropylmethylene)hydrazinyl)-4-(4-fluorophenyl)thiazole], the MFC in the assay on C. albicans came out at 3.91 µg/mL (≈ 15 µM); in the assay on C. famata, 62.5 µg/mL (≈ 239 µM); in the assay with C. parapsilosis, 7.81 µg/mL (≈ 29.9 µM); in the assay on C. krusei, 1.95 µg/mL (≈ 7.46 µM); in the assay with C. tropicalis, 1.95 µg/mL (≈ 7.46 µM); in the assay on C. sake it was 15.6 µg/mL (≈ 59.8 µM). Moreover, the MFC was determined as 31.2 µg/mL (≈ 120 µM) with C. guilliermondii, 3.91 µg/mL (≈ 15 µM) in the assay with C. inconspicua, 3.91 µg/mL (≈ 15 µM) in the assay on C. dubliniensis and 3.91 µg/mL (≈ 15 µM) in the assay with C. lusitaniae. The MIC turned out to be 0.98 µg/mL (≈ 3.75 µM) with C. albicans; 7.81 µg/mL (≈ 29.9 µM) with C. famata; 3.91 µg/mL (≈ 15 µM) in the assay with C. parapsilosis; 0.98 µg/mL (≈ 3.75 µM) with C. krusei; 0.98 µg/mL (≈ 3.75 µM) in the assay on C. tropicalis; 3.91 µg/mL (≈ 15 µM) in the assay with C. sake. Further, the MIC with C. guilliermondii was 1.95 µg/mL (≈ 7.46 µM); in the assay with C. inconspicua, 1.95 µg/mL (≈ 7.46 µM); with C. dubliniensis, 1.95 µg/mL (≈ 7.46 µM); in the assay on C. lusitaniae it was 0.98 µg/mL (≈ 3.75 µM).

For `Brc1ccc(-c2csc(N/N=C/C3CC3)n2)cc1` [Compound 3b, (E)-4-(4-Bromophenyl)-2-(2-(cyclopropylmethylene)hydrazinyl)thiazole], the MFC in the assay with C. albicans is 1.95 µg/mL (≈ 6.05 µM); in the assay on C. glabrata it was over 1000 µg/mL; with C. famata it was 0.98 µg/mL (≈ 3.04 µM); in the assay on C. parapsilosis, 0.12 µg/mL (≈ 0.372 µM); with C. krusei, 0.48 µg/mL (≈ 1.49 µM); in the assay with C. tropicalis, 0.12 µg/mL (≈ 0.372 µM). The MFC with C. sake is 0.24 µg/mL (≈ 0.745 µM); in the assay with C. guilliermondii, 0.48 µg/mL (≈ 1.49 µM); in the assay on C. inconspicua, 3.91 µg/mL (≈ 12.1 µM); with C. dubliniensis, 0.06 µg/mL (≈ 0.186 µM); in the assay on C. lusitaniae it was 1.95 µg/mL (≈ 6.05 µM); in the assay with C. kefyr it was over 1000 µg/mL. Moreover, the MIC was 0.12 µg/mL (≈ 0.372 µM) in the assay on C. albicans; 62.5 µg/mL (≈ 194 µM) in the assay with C. glabrata; 0.12 µg/mL (≈ 0.372 µM) with C. famata; 0.12 µg/mL (≈ 0.372 µM) with C. parapsilosis; 0.24 µg/mL (≈ 0.745 µM) in the assay on C. krusei; 0.06 µg/mL (≈ 0.186 µM) in the assay on C. tropicalis. In addition, the MIC in the assay with C. sake is 0.06 µg/mL (≈ 0.186 µM); in the assay on C. guilliermondii it was 0.12 µg/mL (≈ 0.372 µM); in the assay on C. inconspicua it was 0.24 µg/mL (≈ 0.745 µM); with C. dubliniensis it was 0.06 µg/mL (≈ 0.186 µM); in the assay with C. lusitaniae, 0.98 µg/mL (≈ 3.04 µM); in the assay on C. kefyr, 15.6 µg/mL (≈ 48.5 µM).

`[N-]=[N+]=Nc1ccc(-c2csc(N/N=C/C3CC3)n2)cc1` [Compound 3i, (E)-4-(4-Azidophenyl)-2-(2-(cyclopropylmethylene)hydrazinyl)thiazole]: the MFC in the assay on C. albicans is 15.6 µg/mL (≈ 54.9 µM); in the assay with C. glabrata, over 1000 µg/mL; in the assay on C. famata, 7.81 µg/mL (≈ 27.5 µM); with C. parapsilosis, 0.98 µg/mL (≈ 3.45 µM); with C. pulcherrima (read-out: MFC), over 1000 µg/mL; with C. krusei it was 7.81 µg/mL (≈ 27.5 µM). Further, the MFC with C. tropicalis was determined as 1.95 µg/mL (≈ 6.86 µM); in the assay on C. sake, 7.81 µg/mL (≈ 27.5 µM); in the assay on C. guilliermondii it was 15.6 µg/mL (≈ 54.9 µM); in the assay with C. inconspicua, 0.98 µg/mL (≈ 3.45 µM); in the assay with C. dubliniensis it was 0.12 µg/mL (≈ 0.422 µM); in the assay with C. lusitaniae, 1.95 µg/mL (≈ 6.86 µM). Moreover, the MFC in the assay with C. kefyr was over 1000 µg/mL. Also, the minimum inhibitory concentration (MIC) in the assay on C. albicans was 0.48 µg/mL (≈ 1.69 µM); in the assay with C. glabrata, 31.2 µg/mL (≈ 110 µM); in the assay with C. famata, 1.95 µg/mL (≈ 6.86 µM); in the assay with C. parapsilosis, 0.24 µg/mL (≈ 0.844 µM); with C. pulcherrima (read-out: MIC), 62.5 µg/mL (≈ 220 µM); in the assay with C. krusei, 0.98 µg/mL (≈ 3.45 µM). For the same molecule, the minimal inhibitory concentration (MIC) with C. tropicalis was 0.24 µg/mL (≈ 0.844 µM); with C. sake it was 0.48 µg/mL (≈ 1.69 µM); in the assay on C. guilliermondii, 0.98 µg/mL (≈ 3.45 µM); in the assay with C. inconspicua, 0.48 µg/mL (≈ 1.69 µM); with C. dubliniensis, 0.015 µg/mL (≈ 0.0528 µM); in the assay on C. lusitaniae, 0.48 µg/mL (≈ 1.69 µM). Besides, the MIC in the assay with C. kefyr amounted to 7.81 µg/mL (≈ 27.5 µM).

By MIC is commonly meant the lowest concentration that inhibits growth of the organism.
